A short description of assay [1]: (§1) Inhibitory activity against Melanin-concentrating hormone receptor 1. Further details: species or system Homo sapiens.
Assay [2] concerns the target T1, 5-hydroxytryptamine receptor 2C (Homo sapiens, UniProt P28335).
T1 sequence (P28335 whole entry): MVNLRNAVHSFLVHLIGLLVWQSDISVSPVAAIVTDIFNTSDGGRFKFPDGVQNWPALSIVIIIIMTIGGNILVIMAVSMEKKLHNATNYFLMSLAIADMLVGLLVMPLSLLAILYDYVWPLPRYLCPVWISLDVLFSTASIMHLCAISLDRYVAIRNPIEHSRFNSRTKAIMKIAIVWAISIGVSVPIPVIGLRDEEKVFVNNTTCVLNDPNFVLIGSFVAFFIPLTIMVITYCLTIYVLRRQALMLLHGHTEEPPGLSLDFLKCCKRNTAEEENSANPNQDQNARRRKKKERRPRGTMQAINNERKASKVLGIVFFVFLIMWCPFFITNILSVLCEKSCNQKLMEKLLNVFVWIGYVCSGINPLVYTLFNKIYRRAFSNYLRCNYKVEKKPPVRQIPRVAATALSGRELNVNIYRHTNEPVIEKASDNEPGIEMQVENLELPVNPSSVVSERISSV
Kind of assay: Inhibitory activity against human 5-HT2C receptor.

In assay [3] the target is D(2) dopamine receptor (Homo sapiens) (UniProt P14416). The experiment in a line: Inhibitory activity against human D2 receptor at 10 uM.
The target in assay [4] is T2, 5-hydroxytryptamine receptor 2A (Homo sapiens, UniProt P28223). The experiment in a line: Inhibitory activity against human 5-HT2A receptor.
The target of assay [5] is T3, 5-hydroxytryptamine receptor 2B (Homo sapiens, UniProt P41595). The experiment in a line: Inhibitory activity against human 5-HT2B receptor.
Assay [6] concerns the target T4, Alpha-1A adrenergic receptor (Homo sapiens) (UniProt P35348).
T4 sequence (whole entry): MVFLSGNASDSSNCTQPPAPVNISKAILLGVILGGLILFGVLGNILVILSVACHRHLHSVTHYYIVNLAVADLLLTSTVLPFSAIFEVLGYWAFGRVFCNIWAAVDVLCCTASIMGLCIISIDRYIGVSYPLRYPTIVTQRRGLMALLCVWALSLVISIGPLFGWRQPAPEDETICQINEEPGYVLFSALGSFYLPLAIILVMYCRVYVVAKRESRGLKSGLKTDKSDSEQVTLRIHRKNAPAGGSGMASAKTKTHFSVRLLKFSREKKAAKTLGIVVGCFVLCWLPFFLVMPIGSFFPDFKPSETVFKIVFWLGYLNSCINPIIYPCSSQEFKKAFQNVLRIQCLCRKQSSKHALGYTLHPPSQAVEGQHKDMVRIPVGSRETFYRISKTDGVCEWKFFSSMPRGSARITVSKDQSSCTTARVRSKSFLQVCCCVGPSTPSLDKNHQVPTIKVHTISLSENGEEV
Kind of assay: Inhibitory activity against human adrenergic alpha-1A receptor at 10 uM.

The target in assay [7] is T4, Alpha-1A adrenergic receptor (Homo sapiens). Kind of assay: Inhibitory activity against human adrenergic alpha-1A receptor at 10 uM concentration.
The species named for assay [8] is Homo sapiens. Kind of assay: Selectivity ratio for MCH-1R versus 5-HT2B receptor.
Assay [9] has as its target D(2) dopamine receptor (Homo sapiens) (UniProt P14416). Kind of assay: Inhibitory activity against human D2 receptor at 10 uM concentration.
In assay [10] the target is T2, 5-hydroxytryptamine receptor 2A. Kind of assay: Inhibitory activity against human 5-HT2A receptor at 1 uM concentration.
Assay [11] deals with T5, 5-hydroxytryptamine receptor 2C (Homo sapiens) (UniProt P28335).
T5 sequence (whole entry): T1 sequence (P28335 whole entry)
Kind of assay: Inhibitory activity against human 5-HT2C receptor at 1 uM concentration.

The target of assay [12] is T6, Melanin-concentrating hormone receptor 1 (Homo sapiens, UniProt Q99705). The experiment in a line: Tested for MCH-1 induced [Ca2+] release from CHO cells transfected with human MCH-1R. Format: cell-based.
In assay [13] the target is T3, 5-hydroxytryptamine receptor 2B. Kind of assay: Inhibitory activity against human 5-HT2B receptor at 1 uM concentration.
The target in assay [14] is D(2) dopamine receptor (Homo sapiens) (UniProt P14416). Kind of assay: Inhibitory activity against human D2 receptor at 1 uM concentration.
In assay [15] the target is T4, Alpha-1A adrenergic receptor (Homo sapiens). The experiment in a line: Inhibitory activity against human adrenergic alpha-1A receptor at 1 uM concentration.
Assay [16] has as its target T6, Melanin-concentrating hormone receptor 1. The assay is described as §1. To be noted: concentration not given here.
The target is the same in assay [17]. The experiment in a line: Inhibitory activity against Melanin-concentrating hormone receptor 1 at 1 uM.

Chain of D(2) dopamine receptor (Homo sapiens) (P14416 whole entry): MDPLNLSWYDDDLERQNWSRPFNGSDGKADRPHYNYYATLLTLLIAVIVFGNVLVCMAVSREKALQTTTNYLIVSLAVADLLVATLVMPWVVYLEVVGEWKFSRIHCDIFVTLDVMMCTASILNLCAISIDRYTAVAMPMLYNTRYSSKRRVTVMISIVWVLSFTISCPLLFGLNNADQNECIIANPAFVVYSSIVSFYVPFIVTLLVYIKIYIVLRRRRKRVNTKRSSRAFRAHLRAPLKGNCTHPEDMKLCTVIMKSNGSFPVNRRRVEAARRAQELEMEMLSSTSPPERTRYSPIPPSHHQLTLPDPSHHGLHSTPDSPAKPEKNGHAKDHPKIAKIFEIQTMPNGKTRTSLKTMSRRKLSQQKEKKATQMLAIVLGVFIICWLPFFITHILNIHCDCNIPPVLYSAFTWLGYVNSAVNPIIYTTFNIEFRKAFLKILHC
T6 sequence (Q99705 whole entry): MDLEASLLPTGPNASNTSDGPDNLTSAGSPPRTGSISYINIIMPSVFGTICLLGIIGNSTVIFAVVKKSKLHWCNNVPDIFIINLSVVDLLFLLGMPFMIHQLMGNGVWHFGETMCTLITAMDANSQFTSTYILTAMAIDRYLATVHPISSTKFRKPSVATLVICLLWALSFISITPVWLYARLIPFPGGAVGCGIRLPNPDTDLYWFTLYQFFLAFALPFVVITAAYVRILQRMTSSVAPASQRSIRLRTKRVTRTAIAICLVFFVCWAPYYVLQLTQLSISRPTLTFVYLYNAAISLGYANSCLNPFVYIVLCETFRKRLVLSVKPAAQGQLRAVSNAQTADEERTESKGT
T3 sequence (P41595 whole entry): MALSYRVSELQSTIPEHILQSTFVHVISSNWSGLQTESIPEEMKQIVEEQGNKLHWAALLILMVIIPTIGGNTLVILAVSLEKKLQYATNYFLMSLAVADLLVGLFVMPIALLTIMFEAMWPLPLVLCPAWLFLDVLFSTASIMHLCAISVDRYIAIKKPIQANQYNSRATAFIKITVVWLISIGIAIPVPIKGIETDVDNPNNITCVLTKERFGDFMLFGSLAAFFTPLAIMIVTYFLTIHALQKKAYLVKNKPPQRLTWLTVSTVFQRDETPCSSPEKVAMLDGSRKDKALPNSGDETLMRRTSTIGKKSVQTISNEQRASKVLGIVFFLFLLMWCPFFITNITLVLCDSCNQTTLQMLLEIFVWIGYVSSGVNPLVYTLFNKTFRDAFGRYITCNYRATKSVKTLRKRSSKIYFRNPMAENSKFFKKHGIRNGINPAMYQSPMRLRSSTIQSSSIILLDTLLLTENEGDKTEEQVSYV
T2 sequence (P28223 whole entry): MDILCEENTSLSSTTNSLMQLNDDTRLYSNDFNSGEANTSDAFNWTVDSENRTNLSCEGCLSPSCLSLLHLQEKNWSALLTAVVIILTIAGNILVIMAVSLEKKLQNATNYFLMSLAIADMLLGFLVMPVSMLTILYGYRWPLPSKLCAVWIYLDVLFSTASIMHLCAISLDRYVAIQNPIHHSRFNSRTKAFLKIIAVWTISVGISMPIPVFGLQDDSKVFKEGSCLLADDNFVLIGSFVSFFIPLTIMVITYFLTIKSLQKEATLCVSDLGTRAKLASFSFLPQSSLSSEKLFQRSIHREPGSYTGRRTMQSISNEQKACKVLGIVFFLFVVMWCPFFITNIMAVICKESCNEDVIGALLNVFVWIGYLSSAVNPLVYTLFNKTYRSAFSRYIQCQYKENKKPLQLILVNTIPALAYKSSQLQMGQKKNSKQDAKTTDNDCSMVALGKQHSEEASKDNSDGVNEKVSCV

In general, IC50 refers to the concentration that gives 50% inhibition. A high value points to a need for much substance. The compound `Cc1cc(N2CCN(C)CC2)nc2ccc(NC(=O)COc3ccccc3Cl)cc12` came in with an IC50 in assay [1] of 470 nM.
On the same count and under the same terms, with `Cc1cc(N2CCN(C)CC2)nc2ccc(NC(=O)COc3ccc(F)cc3)cc12` the figure was 1680 nM.
In general, inhibition refers to the percentage by which the read-out fell short of the control. A high value points to a response far below the control. As to `Cc1cc(N2CCN(C)CC2)nc2ccc(NC(=O)COc3ccc(Cl)cc3)cc12`, the IC50 in assay [2] was determined as 970 nM; in assay [4], 2180 nM; in [1], 55 nM; in [5], 349 nM. Moreover, the inhibition in [3] worked out at 35%; in [6], 84%.
`Cc1ccccc1OCC(=O)Nc1ccc2nc(N3CCN(C)CC3)cc(C)c2c1` had an IC50 in assay [1] of 1050 nM. This counts as single-digit micromolar.
For the compound `Cc1cc(N2CCN(C)CC2)nc2ccc(NC(=O)COc3ccc(C(F)(F)F)cc3)cc12`, the inhibition in assay [7] is 85%; in assay [9], 41%; in assay [10], 27%; in assay [11], 39%. In addition, the Ratio in assay [8] was determined as 32. The figures for the IC50 in assay [1], in assay [5] and in assay [12] were 14 nM, 442 nM and 63 nM, respectively.
`Cc1cc(NC2CCCC2)nc2ccc(NC(=O)COc3ccc(C(F)(F)F)cc3)cc12` had an IC50 in assay [1] of 38 nM.
For `Cc1cc(N2CCOCC2)nc2ccc(NC(=O)COc3ccc(C(F)(F)F)cc3)cc12`, the Ratio in assay [8] was above 11. Besides, the inhibition in [13] came to 19%; in assay [14], 43%; in assay [10], 27%; in assay [15], 5%; in [11], 27%. Further, the figures for the IC50 in assay [1] and in assay [12] were 91 nM and 124 nM, respectively.
As to `Cc1cc(NC(C)C)nc2ccc(NC(=O)COc3ccc(C(F)(F)F)cc3)cc12`, the Ratio in assay [8] was determined as 36. The inhibition in [14] was 2%; in assay [10], 18%; in assay [15], 24%; in assay [11], 18%. Besides, the results for the IC50 in [1] and in assay [5] were 11 nM and 400 nM, respectively.
Regarding `Cc1cc(N2CCN(C)CC2)nc2ccc(NC(=O)COc3ccc(OC(F)(F)F)cc3)cc12`, inhibition in [1] was half-maximal at 36 nM (IC50).
In the case of `COc1ccccc1OCC(=O)Nc1ccc2nc(N3CCN(C)CC3)cc(C)c2c1`, in [16], the inhibition was determined as 0%.
In assay [1], `Cc1cc(N2CCCCC2)nc2ccc(NC(=O)COc3ccc(C(F)(F)F)cc3)cc12` had an IC50 of 226 nM.
In assay [1], `Cc1cc(N2CCN(C)CC2)nc2ccc(NC(=O)COc3ccc(C#N)cc3)cc12` gave an IC50 of 370 nM.
`Cc1cc(N(C)Cc2ccccc2)nc2ccc(NC(=O)COc3ccc(C(F)(F)F)cc3)cc12` came in with an inhibition in assay [17] of 40%.
In turn, `Cc1cc(N(C)C)nc2ccc(NC(=O)COc3ccc(C(F)(F)F)cc3)cc12` registered an IC50 in assay [1] of 174 nM.
With `Cc1cc(N2CCN(C)CC2)nc2ccc(NC(=O)COCc3ccc(Cl)cc3)cc12`, the inhibition in assay [17] turned out to be 19%.
In the case of `Cc1cc(N(C)CCN(C)C)nc2ccc(NC(=O)COc3ccc(C(F)(F)F)cc3)cc12`, the IC50 in assay [1] is 22 nM. In other words, the double-digit nanomolar range.
`Cc1cc(N2CCN(C)CC2)nc2ccc(NC(=O)COc3cccc(Cl)c3)cc12`: the inhibition in assay [16] was determined as 19%.
`Cc1cc(N2CCN(C)CC2)nc2ccc(NC(=O)COc3ccccc3)cc12` showed an inhibition in [17] of 2%.
For `Cc1cc(N2CCCC2)nc2ccc(NC(=O)COc3ccc(C(F)(F)F)cc3)cc12`, the Ratio in [8] was above 200. The inhibition was 7% in assay [14], 11% in [10], 10% in [15] and 7% in assay [11]. For the same compound, the IC50 in assay [1] was determined as 15 nM; in assay [12], 10 nM.
As for `Cc1cc(N2CCN(C)CC2)nc2ccc(NC(=O)CSCc3ccc(Cl)cc3)cc12`, in assay [17], the inhibition was 38%.
For `COc1cccc(OCC(=O)Nc2ccc3nc(N4CCN(C)CC4)cc(C)c3c2)c1`, the inhibition in [17] was 9%.
Regarding `COc1ccc(OCC(=O)Nc2ccc3nc(N4CCN(C)CC4)cc(C)c3c2)cc1`, the IC50 in assay [1] is 152 nM.
In the case of `Cc1cc(N2CCN(C)CC2)nc2ccc(NC(=O)CCc3ccc(Cl)cc3)cc12`, the midpoint of inhibition in assay [1], the IC50, lay at 300 nM.
Same read-out and setting: for `Cc1ccc(OCC(=O)Nc2ccc3nc(N4CCN(C)CC4)cc(C)c3c2)cc1` the value was 80 nM.

For the origin of these results see ChEMBL document CHEMBL1137142, “Structure-activity relationships of a novel series of melanin-concentrating hormone (MCH) receptor antagonists” (Bioorg Med Chem Lett, 2004).
